Results reported in PubChem BioAssay (NCI).
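How tested: cells in 96-well plates exposed to compound for 48 hours at five concentrations. TGI marks complete inhibition of growth.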

How the values were obtained:
Assay in all cases: DTP human tumour cell line panel, 48 h
A498 renal = system: A498 renal
CCRF-CEM leukemia = system: CCRF-CEM leukemia
PC-3 prostate = system: PC-3 prostate
SW-620 colon = system: SW-620 colon
MDA-MB-231 breast = system: MDA-MB-231 breast
T-47D breast = system: T-47D breast
HOP-92 NSCLC = system: HOP-92 NSCLC
SK-MEL-28 melanoma = system: SK-MEL-28 melanoma
NCI-H23 lung = system: NCI-H23 lung
SNB-75 CNS = system: SNB-75 CNS
HOP-62 NSCLC = system: HOP-62 NSCLC
UO-31 renal = system: UO-31 renal
ACHN renal = system: ACHN renal
UACC-62 melanoma = system: UACC-62 melanoma
MDA-MB-435 = system: MDA-MB-435
K-562 leukemia = system: K-562 leukemia
A549 NSCLC = system: A549 NSCLC
SF-539 CNS = system: SF-539 CNS
HCT-15 colon = system: HCT-15 colon
NCI/ADR-RES ovarian = system: NCI/ADR-RES ovarian
LOX IMVI melanoma = system: LOX IMVI melanoma
SK-MEL-5 melanoma = system: SK-MEL-5 melanoma
MOLT-4 leukemia = system: MOLT-4 leukemia
UACC-257 melanoma = system: UACC-257 melanoma
MDA-N = system: MDA-N
SN12C renal = system: SN12C renal
DU-145 prostate = system: DU-145 prostate
SF-268 CNS = system: SF-268 CNS
NCI-H460 lung = system: NCI-H460 lung
COLO 205 colon = system: COLO 205 colon
SNB-19 CNS = system: SNB-19 CNS
U251 CNS = system: U251 CNS
SK-OV-3 ovarian = system: SK-OV-3 ovarian
OVCAR-8 ovarian = system: OVCAR-8 ovarian
OVCAR-5 ovarian = system: OVCAR-5 ovarian
HCT-116 colon = system: HCT-116 colon
MALME-3M melanoma = system: MALME-3M melanoma
MCF7 breast = system: MCF7 breast
OVCAR-4 ovarian = system: OVCAR-4 ovarian
HCC-2998 colon = system: HCC-2998 colon
SK-MEL-2 melanoma = system: SK-MEL-2 melanoma
SF-295 CNS = system: SF-295 CNS
HS 578T breast = system: HS 578T breast
HT29 colon = system: HT29 colon
786-0 renal = system: 786-0 renal
BT-549 breast = system: BT-549 breast
NCI-H226 lung = system: NCI-H226 lung
RPMI-8226 leukemia = system: RPMI-8226 leukemia
SR leukemia = system: SR leukemia
KM12 colon = system: KM12 colon
EKVX NSCLC = system: EKVX NSCLC
M14 melanoma = system: M14 melanoma
NCI-H522 lung = system: NCI-H522 lung
IGROV1 ovarian = system: IGROV1 ovarian
TK-10 renal = system: TK-10 renal
OVCAR-3 ovarian = system: OVCAR-3 ovarian
CAKI-1 renal = system: CAKI-1 renal

**Q.** For COc1cc(/C=C2/CCS(=O)(=O)c3ccc(C)cc3C2=O)cc(OC)c1OC, which TGI (A498 renal) is on record?
**A.** 23.7 µM

**Q.** What about the TGI (CCRF-CEM leukemia) of the same molecule?
**A.** > 100 µM

**Q.** And the TGI (PC-3 prostate)?
**A.** > 100 µM

**Q.** What about the TGI (SW-620 colon) of the same molecule?
**A.** > 45.4 µM

**Q.** And the TGI (MDA-MB-231 breast)?
**A.** 11.2 µM

**Q.** What about the TGI (T-47D breast) of the same molecule?
**A.** > 52.7 µM

**Q.** What about the TGI (HOP-92 NSCLC) of the same molecule?
**A.** > 43.2 µM

**Q.** And the TGI (SK-MEL-28 melanoma)?
**A.** > 37.4 µM

**Q.** What about the TGI (NCI-H23 lung) of the same molecule?
**A.** > 36.2 µM

**Q.** And the TGI (SNB-75 CNS)?
**A.** 30 µM

**Q.** And the TGI (HOP-62 NSCLC)?
**A.** 23.1 µM

**Q.** And the TGI (UO-31 renal)?
**A.** 23.4 µM

**Q.** What about the TGI (ACHN renal) of the same molecule?
**A.** 14.2 µM

**Q.** What about the TGI (UACC-62 melanoma) of the same molecule?
**A.** 16.8 µM

**Q.** What about the TGI (MDA-MB-435) of the same molecule?
**A.** > 27.2 µM

**Q.** And the TGI (K-562 leukemia)?
**A.** 4.06 µM

**Q.** And the TGI (A549 NSCLC)?
**A.** > 42 µM

**Q.** And the TGI (SF-539 CNS)?
**A.** 7.05 µM

**Q.** And the TGI (HCT-15 colon)?
**A.** > 39 µM

**Q.** And the TGI (NCI/ADR-RES ovarian)?
**A.** > 28.6 µM

**Q.** And the TGI (LOX IMVI melanoma)?
**A.** 6.4 µM

**Q.** And the TGI (SK-MEL-5 melanoma)?
**A.** > 38.3 µM

**Q.** What about the TGI (MOLT-4 leukemia) of the same molecule?
**A.** > 100 µM

**Q.** And the TGI (UACC-257 melanoma)?
**A.** > 42.7 µM

**Q.** And the TGI (MDA-N)?
**A.** > 33.3 µM

**Q.** And the TGI (SN12C renal)?
**A.** 21.9 µM

**Q.** What about the TGI (DU-145 prostate) of the same molecule?
**A.** > 27.6 µM

**Q.** And the TGI (SF-268 CNS)?
**A.** > 49.2 µM

**Q.** And the TGI (NCI-H460 lung)?
**A.** 13.5 µM

**Q.** What about the TGI (COLO 205 colon) of the same molecule?
**A.** 16.9 µM

**Q.** And the TGI (SNB-19 CNS)?
**A.** > 34.8 µM

**Q.** And the TGI (U251 CNS)?
**A.** > 31 µM

**Q.** And the TGI (SK-OV-3 ovarian)?
**A.** 37.8 µM

**Q.** What about the TGI (OVCAR-8 ovarian) of the same molecule?
**A.** 11.5 µM

**Q.** And the TGI (OVCAR-5 ovarian)?
**A.** 25.4 µM

**Q.** And the TGI (HCT-116 colon)?
**A.** 11.2 µM

**Q.** And the TGI (MALME-3M melanoma)?
**A.** > 36.3 µM

**Q.** And the TGI (MCF7 breast)?
**A.** 14.9 µM

**Q.** What about the TGI (OVCAR-4 ovarian) of the same molecule?
**A.** > 100 µM

**Q.** And the TGI (HCC-2998 colon)?
**A.** > 35.7 µM

**Q.** And the TGI (SK-MEL-2 melanoma)?
**A.** 99.2 µM

**Q.** What about the TGI (SF-295 CNS) of the same molecule?
**A.** 42.1 µM

**Q.** And the TGI (HS 578T breast)?
**A.** > 35.9 µM

**Q.** What about the TGI (HT29 colon) of the same molecule?
**A.** > 33.8 µM

**Q.** And the TGI (786-0 renal)?
**A.** > 35.4 µM

**Q.** What about the TGI (BT-549 breast) of the same molecule?
**A.** > 26.3 µM

**Q.** What about the TGI (NCI-H226 lung) of the same molecule?
**A.** 45.9 µM

**Q.** What about the TGI (RPMI-8226 leukemia) of the same molecule?
**A.** 6.6 µM

**Q.** And the TGI (SR leukemia)?
**A.** 7.13 µM

**Q.** And the TGI (KM12 colon)?
**A.** > 41.2 µM

**Q.** What about the TGI (EKVX NSCLC) of the same molecule?
**A.** 30.2 µM

**Q.** And the TGI (M14 melanoma)?
**A.** 18.9 µM

**Q.** What about the TGI (NCI-H522 lung) of the same molecule?
**A.** 12.4 µM

**Q.** What about the TGI (IGROV1 ovarian) of the same molecule?
**A.** > 39.4 µM

**Q.** What about the TGI (TK-10 renal) of the same molecule?
**A.** > 44.5 µM

**Q.** And the TGI (OVCAR-3 ovarian)?
**A.** 20.1 µM

**Q.** And the TGI (CAKI-1 renal)?
**A.** > 40.8 µM
